Assay results taken from patent US20180289840A1, “Method for Evaluating Hematological Toxicity of Drug Under Evaluation, and Model for Evaluating Hematological Toxicity of Drug Under Evaluation” (Central Institute for Experimental Animals, priority 2015, published 2018).
Where two headings read alike, the source gives them in different places.

What was measured:
[1] = system: mouse CD45+ cells (granulocytes-based progenitor cells); experiment: Colony forming test on granulocytes-based myelopoiesis progenitor cells, mouse CD45+ bone marrow cells of humanized Tg-NOG mouse; format: cell-based; settings: cultured 8 days; for IC50: concentration at which formation of 50% of granulocyte-derived colonies is inhibited, read-out: IC50 (nM) mCD45+; for IC90: concentration at which formation of 90% of granulocyte-derived colonies is inhibited, read-out: IC90 (nM) mCD45+
Text: (§1) The mouse at week 14 after the transplantation of the hCD34^+ cells derived from the human cord blood was euthanized by removing the blood from the abdominal aorta under anesthesia of isoflurane. Then, the femur was collected. The femur was sterilely washed using the Iscove's Modified Dulbecco's Medium (IMDM, available from Life Technologies) to prepare a suspension of cells. The suspension of cells was passed through a nylon filter (pore size of 35 μm, Cell Strainer, available from BD Biosciences) to obtain a filtrate as a solution of the bone marrow cells. A portion of the solution of the bone marrow cells was subjected to FACS analysis to calculate a ratio between the human-derived leucocytes (hCD45^+) and the mouse-derived leucocytes (mCD45^+).
The mouse CD45^+ cells were suspended in a methyl cellulose medium (available from MethoCult GF M3534, Stem cell technologies) so as to be 2×10^4 cells/1.1 mL/dish. Then, EHC (1.2 nM, 3.7 nM, 11 nM, 33 nM, 100 nM, or 300 nM) was added. Meanwhile, PTX (0.12 nM, 0.4 nM, 1.1 nM, 3.3 nM, 10 nM, 30 nM, or 90 nM) was added. The resultant was seeded in a dish and was cultured for 8 days at 37° C. under 5% CO2.
(§2) As the vehicle control, dimethyl sulfoxide (DMSO, final concentration of 0.002 v/v %) was used. For each concentration, two dishes were used.
(§3) After a period of the cultivation was completed, the number of the colonies derived from the granulocytes formed was counted and an average number of the colonies in each concentration was calculated. An average number of the colonies in the vehicle control was considered as 100%. The average number of the colonies in each concentration was considered as a relative value (IC50 and IC90). Here, the IC50 means a concentration at which formation of 50% of the colonies is inhibited and the IC90 means a concentration at which formation of 90% of the colonies is inhibited.
(§4) The collection, preparation, and cultivation of the bone marrow cells and the calculation of the percentage of inhibition of colony formation were performed in the same manner as in Example 3-1.
The mouse CD45^+ cells were exposed to nogitecan at an exposure concentration of 3.7 nM, 11.1 nM, 33.3 nM, 100 nM, 300 nM, or 900 nM. Meanwhile, the other mouse CD45^+ cells were exposed to oxaliplatin at an exposure concentration of 13.7 nM, 41.2 nM, 123 nM, 370 nM, or 1,111 nM.
(§5) A physiological saline solution was used for the vehicle control of nogitecan and a distilled water was used for the vehicle control of oxaliplatin.
(§6) An average number of the colonies in the vehicle control was considered as 100%. The average number of the colonies in each concentration was considered as a relative value (IC50 and IC90). Here, the IC50 means a concentration at which formation of 50% of the colonies is inhibited and the IC90 means a concentration at which formation of 90% of the colonies is inhibited.

[2] = system: human CD45+ cells (granulocytes-based progenitor cells); experiment: Colony forming test on granulocytes-based myelopoiesis progenitor cells, human CD45+ bone marrow cells of humanized Tg-NOG mouse; format: cell-based; settings: for influence on the granulocytes-based progenitor cells in the bone marrow, human vs mouse: colony forming test, comparison hCD45+ vs mCD45+; for IC50: concentration at which formation of 50% of granulocyte-derived colonies is inhibited, read-out: IC50 (nM) hCD45+; for IC50 / IC90: cultured 16 days; for IC90: concentration at which formation of 90% of granulocyte-derived colonies is inhibited, read-out: IC90 (nM) hCD45+
Text: as §1
The human 45^+ cells were suspended in a methyl cellulose medium (MethoCult H4534, available from Stem cell technologies) so as to be 5×10^4 cells/1.1 mL/dish. Then, EHC was added at 0.14 nM, 0.4 nM, 1.2 nM, 3.7 nM, 11 nM, or 33 nM. Meanwhile, PTX was added at 0.12 nM, 0.4 nM, 1.1 nM, 3.3 nM, 10 nM, 30 nM, or 90 nM. The resultant was seeded in a dish and was cultured for 16 days at 37° C. under 5% CO2.
as §2, §3, §4
The human CD45^+ cells were exposed to nogitecan at an exposure concentration of 0.41 nM, 1.2 nM, 3.7 nM, 11.1 nM, 33.3 nM, or 100 nM. Meanwhile, the other human CD45^+ cells were exposed to oxaliplatin at an exposure concentration of 123 nM, 370 nM, 1,111 nM, 3,333 nM, 10,000 nM, or 30,000 nM.
as §5, §6

Tg-NOG mouse = experiment: Survival and general condition of humanized Tg-NOG mice after single intravenous administration; format: in vivo
Experimental: (§7) Six-week-old Tg-NOG mice (24 females) were irradiated with X-rays of 2.5 Gy. After a period of from 3 hours to 4 hours, the CD34^+ cells derived from the human cord blood were transplanted at 40,000 cells/body. At 5 week after the transplantation, the peripheral blood was collected from the orbital sinus under anesthesia of isoflurane. Engraftment thereof in the peripheral blood was confirmed.
(§8) Eleven mice suitable for the evaluation were selected and divided into the control group (5 mice) and the oxaliplatin administration group (6 mice). The mice in the control group received a 5 w/v % glucose solution from the tail vein through single intravenous administration. Meanwhile, two mice of the 6 mice in the oxaliplatin administration group received oxaliplatin at 20 mg/kg (2 mg/mL, 10 mL/kg), another two mice in the oxaliplatin administration group received oxaliplatin at 30 mg/kg (3 mg/mL, 10 mL/kg), and the other two mice in the oxaliplatin administration group received oxaliplatin at 40 mg/kg (4 mg/mL, 10 mL/kg) from the tail vein through single intravenous administration. Regarding assignment of the animals, the animals were grouped so that an average value of the number of the human leucocytes and that of the number of the human granulocytes were almost the same.
(§9) The peripheral blood was collected from the orbital sinus under anesthesia of isoflurane at day 4, day 7, day 14, day 17, day 21, and day 28 after the administration. Then, the number of the leucocytes in the peripheral blood was measured with FACS. The animals administered at 30 mg/kg and the animals administered at 40 mg/kg died by day 7 after the administration.

[3] = system: mouse-derived leucocytes (mCD45+) and mouse-derived granulocytes (mGr-1+); format: in vivo; settings: oxaliplatin 20 mg/kg single intravenous
Experimental: as §7, §8, §9

[4] = system: human-derived leucocytes (hCD45+) and human-derived granulocytes (hCD66b+); format: in vivo; settings: oxaliplatin 20 mg/kg single intravenous
Experimental: as §7, §8, §9

[5] = Mus musculus, Bone marrow cell, 192 h
[6] = Homo sapiens, Bone marrow cell, 384 h

| IC50 [1, 5] [nM] | IC90 [1, 5] [nM] | IC50 [2, 6] [nM] | IC90 [2, 6] [nM] | Structure (SMILES) | IC50 [1] [nM] | IC90 [1] [nM] | influence on the granulocytes-based progenitor cells in the bone marrow, human vs mouse [2] | IC50 [2] [nM] | IC90 [2] [nM] | general condition of animals (Tg-NOG mouse; oxaliplatin 20 mg/kg single intravenous, day 17 after the administration) | death of animals, day after the administration (Tg-NOG mouse; oxaliplatin 30 mg/kg single intravenous) [days] | death of animals, day after the administration (Tg-NOG mouse; oxaliplatin 40 mg/kg single intravenous) [days] | change of mouse-derived leucocytes (mCD45+) and mouse-derived granulocytes (mGr-1+) [3] | change of human leucocytes in peripheral blood [4] | day from which tendency of recovering of human-derived granulocytes was presented [4] [days] | change of human-derived granulocytes ([4]; day 4 after the administration) | difference between species: influence on the reduction in the leucocytes ([4]; human vs mouse leucocytes) |
| --- | --- | --- | --- | --- | --- | --- | --- | --- | --- | --- | --- | --- | --- | --- | --- | --- | --- |
|  |  |  |  | CCc1c2c(nc3ccc(O)cc13)-c1cc3c(c(=O)n1C2)COC(=O)[C@]3(O)CC [EHC, 7-Ethyl-10-hydroxycamptothecin] | 106 | 122 | higher in the human than in the mouse | 11.3 | 12.9 |  |  |  |  |  |  |  |  |
|  |  |  |  | O=C1[O][Pt]2([NH][C@@H]3CCCC[C@H]3[NH]2)[O]C1=O [Oxaliplatin, oxaliplatin] | 434 | 846 | higher in the mouse than in the human | 2770 | 4660 | moribund condition | ≤ 7 | ≤ 7 | considerably decreased | no considerable reduction | ≥ 7 | slightly decreased | more strongly developed in the human than in the mouse |
| 71.2 | 87.5 | 83.9 | 84.5 | CC(=O)O[C@H]1C(=O)[C@@]2(C)[C@H]([C@H](OC(=O)c3ccccc3)[C@]3(O)C[C@H](OC(=O)[C@H](O)[C@@H](NC(=O)c4ccccc4)c4ccccc4)C(C)=C1C3(C)C)[C@]1(OC(C)=O)CO[C@@H]1C[C@@H]2O [PTX, paclitaxel] |  |  | almost the same between the human and the mouse |  |  |  |  |  |  |  |  |  |  |
| 142 | 305 | 8.7 | 24.3 | CC[C@@]1(O)C(=O)OCc2c1cc1n(c2=O)Cc2cc3c(CN(C)C)c(O)ccc3nc2-1 [Nogitecan, nogitecan] |  |  | higher in the human than in the mouse |  |  |  |  |  |  |  |  |  |  |
